Assay [1] deals with T1, human ghrelin receptor (GRLN, growth hormone secretagogue receptor, hGHS-R1a) (Homo sapiens, UniProt Q92847).
T1 construct: purchased PerkinElmer BioSignal #RBHGHSM, lot#1887; host or cells: HEK-293 cells, stably transfected (membranes)
As to the kind of experiment: Competitive radioligand binding assay (ghrelin receptor), Method B1. The conditions noted are these: Ghrelin receptor binding activity, Method B1. A digest of the protocol:
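Membranes incubated with compound 30 min at rt in 25 mM Hepes pH 7.4, 1 mM CaCl2, 5 mM MgCl2, 2.5 mM EDTA, 0.4% BSA, max 0.1% DMSO; filtered on PEI-soaked GF/C, washed with cold Tris, scintillation counted. Curves fitted by variable-slope non-linear regression.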

Assay [2] has as its target T2, GHS-R1a receptor (HEK293 cells expressing GHS-R1a receptor) (Homo sapiens, UniProt Q92847).
T2 construct: host or cells: HEK293
The experiment in a line: Fluorescence functional assay (ghrelin receptor), Method B2, agonist and antagonist mode. The class given is cell-based. The conditions noted are these: functional activity as an antagonist at the ghrelin receptor, Methods B2 and B3. How it is done: • 1. ImageTrak Epi-Fluorescence system (Perkin-Elmer) • 2. MultiDrop TiterTek • 3. CO2 incubators: 5% CO2, humidified, 37° C.
• 1. Hanks' BSS without phenol red (Life Technologies) • 2. Hepes buffer • 3. Probenecid (Sigma) • 4. […] Falcon cell culture 96-well black/clear bottom plates • 6. 0.05% trypsin-EDTA • 7. Cells: HEK293 cells expressing GHS-R1a receptor (Perkin-Elmer BioSignal) were grown in DMEM (Dulbecco's Modified Eagles Medium) with 10% FBS, 1% sodium pyruvate, 1% NEAA and 400 μg/mL geneticin • 8. […] [D-Lys^3]-GHRP-6 (reference antagonist, Phoenix #031-22) • 10. Assay buffer: HBSS-20 mM Hepes containing 2.5 mM probenecid and 0.1% BSA (bovine serum albumin); pH 7.4
Stock solutions of compounds (10 mM in 100% DMSO) were provided frozen on dry ice and stored at −80° C. prior to use. […] Assay plates were then prepared by appropriate dilution in assay buffer.
Typical Final Test Concentrations (N=10) for Test Compounds (agonist):
Typical Final Test Concentrations (N=10) for Test Compounds (antagonist):
Cells were maintained in culture as indicated above. The cells were harvested at a confluency of 70-90% the day before the experiment. Growth medium was removed and the cells rinsed briefly with PBS without Ca^+2 and Mg^+2. 0.05% Trypsin was added and the plates incubated at 37° C. for 5 min to detach the cells. DMEM medium supplemented with 10% FBS was added to inactivate the trypsin and determine the cell concentration. The inoculum was adjusted to a final concentration of 200 cells/μL and dispensed at 200 μL per well into a 96-well block plate. The plates were, incubated at 37° C. overnight.
The plates were removed from the incubator and the media removed by inversion of the plates. Calcium-3 dye, 50 μL, was loaded and then incubated for 1 h at 37° C. The plate was again inverted and then 25 μL of assay buffer added. The plates were then transferred to the ImageTrak system for analysis. For agonist testing, after reading for ten (10) sec, 25 μL of 2× test compound or control was injected into the assay plate. Fluorescence was monitored for an additional 50 sec. A reading was taken every two (2) seconds for a total of 30 readings per assay point.
For antagonist testing, after reading for ten (10) sec, 12.5 μL of 3× test compound or control was injected into the assay plate and allowed to react for three (3) min.
Concentration response curves were analyzed using GraphPad Prism (GraphPad Software, San Diego, Calif.) by non-linear regression analysis (sigmoidal dose-response). EC50 values are calculated using GraphPad.
Emax values were calculated using the following formula: […]
Concentration response curves were analyzed using GraphPad Prism (GraphPad Software, San Diego, Calif.) by non-linear regression analysis (sigmoidal dose-response). IC50 values are calculated using GraphPad.
Imax values were calculated using the following formula: […]

For assay [3], the target named is T3, ghrelin receptor (HEK-GHSR1 stable cells) (Homo sapiens, UniProt Q92847).
T3 construct: expressed in transfected cells
T3 sequence (Q92847 whole entry): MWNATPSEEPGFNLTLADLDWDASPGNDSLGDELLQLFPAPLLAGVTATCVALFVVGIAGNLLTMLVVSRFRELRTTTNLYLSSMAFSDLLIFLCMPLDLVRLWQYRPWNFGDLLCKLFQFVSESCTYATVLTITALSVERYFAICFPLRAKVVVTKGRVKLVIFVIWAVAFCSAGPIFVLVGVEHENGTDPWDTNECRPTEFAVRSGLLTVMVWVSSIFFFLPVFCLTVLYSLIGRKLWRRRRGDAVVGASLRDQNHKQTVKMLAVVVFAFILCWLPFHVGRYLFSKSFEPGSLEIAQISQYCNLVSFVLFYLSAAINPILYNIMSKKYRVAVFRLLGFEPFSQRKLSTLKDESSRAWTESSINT
The experiment in a line: Ghrelin receptor inverse agonist assay (HTRF IP-one), Method B4. It is filed as cell-based. The conditions noted are these: inverse agonist at the ghrelin receptor, Method B4. From the text: B4. Ghrelin Receptor Inverse Agonist Assay […]
In addition, the following method can be utilized to assay for inverse agonist activity. (Thomsen, W.; et al. Curr. Opin. Biotechnol. 2005, 16, 655-665; Tozawa-Takahashi F; et al., 11th SBS Annual Conference. September 2005, Geneva; Trinquet, E.; Fink, M.; Bazin, H.; et al. Anal. Biochem. 2006, 358, 126-135; Bergsdorf, C.; Kropp-Goerkis, C.; Kaehler, I.; Ketscher, L.; Boerner, U.; Parczyk, K.; Bader, B. Assay Drug Dev. Technol. 2008, 6, 39-53.)
• 1. Remove culture medium from the plate by inversion. • 2. Add 70 μl of compound/well. • 3. Incubate 30 min at 37° C. • 4. Stop the reaction by adding 15 μl of lysis buffer/well. • 5. Add 15 μl of d2/well. • 6. Add 15 μl of Anti-IP1 cryptate/well. • 7. Incubate 1 h at room temp on an orbital shaker at 100 RPM. • 8. Read the fluorescence in a plate reader (Tecan GeniosPro or similar)
The above sequence was performed using the HTRF IP-one kit (CisBio cat#62P1APEC). For the simultaneous assay of multiple test compounds, 96-well plates can be utilized in this assay (white plate with flat-bottom well, Falcon #353296). These were seeded overnight with 100 000 of HEK-GHSR1 stable cells/well. • Wells A1 and A2 of each plate are used as negative control (wells without d2). Compounds are typically tested in replicate at the following concentrations:
Compounds are stored at 10 mM in 100% DMSO.
1st dilution 1/10 in 100% DMSO (1 mM final concentration).
2nd dilution 1/10 in H2O (0.1 mM final concentration).
Other dilutions are performed in a 96-well plate in stimulation buffer.
The results for representative compounds of the invention are provided in the Examples.
A general note: Time-resolved FRET reads energy transfer from a long-lived donor to a nearby acceptor.

T2 sequence (Q92847 whole entry): as above
T1 sequence (Q92847 whole entry): as above

As usually defined, the IC50 is the concentration at which inhibition is half-maximal. Lower therefore signals greater potency in that assay. Regarding `CC[C@@H]1CCc2ccc(F)cc2OCCN[C@@H](C2(C)CC2)C(=O)N(C)[C@@H](C(C)O)C(=O)N[C@H](Cc2cccc(F)c2)C(=O)N1` (some centres unmarked) [Compound 1747], the concentration for half-maximal inhibition (IC50) in assay [1] fell in the range of 10 to 100 nM; in assay [3] it was 50 to 100 nM. For the same compound, the “Antagonist Activity” value in assay [2] was “B (B = 1-10 nM)”.

As to `CC[C@@H]1CCc2ccc(F)cc2OCCN[C@@H](C(C)C)C(=O)N(C)[C@@H](C(C)O)C(=O)N[C@H](Cc2ccc(Cl)cc2)C(=O)N1` (some centres unmarked) [Compound 1753], the IC50 in assay [1] was 10 to 100 nM; in assay [3] it was 50 to 100 nM. Besides, in assay [2], the “Antagonist Activity” value is given as “B (B = 1-10 nM)”.

As to `CC1CCc2ccccc2OCCNC(C(C)(C)C)C(=O)N(C)C(C(C)O)C(=O)NC(Cc2cccc(F)c2)C(=O)N1` (centres unmarked) [Compound 1796], the results for the IC50 in assay [1] and in assay [3] were 1 to 10 nM and 10 to 50 nM, respectively.

Consider `CC(O)C1C(=O)NC(Cc2ccccc2)C(=O)NCC2CCc3cccc(c3C2)OCCNC(C2CCCCC2)C(=O)N1C` (centres unmarked) [Compound 1797], for which the IC50 was 10 to 100 nM in assay [1] and 100 to 500 nM in assay [3].

Turning to `CCC(C)C1NCCOc2cccc3c2CC(CC3)CNC(=O)C(Cc2ccccc2)NC(=O)C(C(C)O)N(C)C1=O` (centres unmarked) [Compound 1798], the IC50 in assay [1] was 1 to 10 nM; in assay [3], 100 to 500 nM.

`CCC(C)C1NCCOc2cccc(F)c2C=CCNC(=O)C(Cc2ccc(Cl)cc2)NC(=O)C(C(C)O)N(C)C1=O` (centres unmarked) [Compound 1799]: the IC50 lay in the range of 1 to 10 nM in assay [1] and 50 to 100 nM in assay [3]. Also, the “Antagonist Activity” value in assay [2] is “C (C = 10-100 nM)”.

Consider `CC1CCc2ccccc2OCCNC(C(C)C)C(=O)N(C)C(C(C)O)C(=O)NC(Cc2c[nH]c3ccc(F)cc23)C(=O)N1` (centres unmarked) [Compound 1801], for which the IC50 in assay [1] is 1 to 10 nM; in assay [3] it was 10 to 50 nM. Further, the “Antagonist Activity” value in assay [2] is listed as “B (B = 1-10 nM)”.

Regarding `Cc1ccc2[nH]cc(CC3NC(=O)C(C(C)O)N(C)C(=O)C(C(C)C)NCCOc4ccccc4CCC(C)NC3=O)c2c1` (centres unmarked) [Compound 1802], the IC50 in assay [1] was in the range of 1 to 10 nM; in assay [3], 10 to 50 nM.

As for `CCC1CCc2ccc(F)cc2OCCNC(C(C)C)C(=O)N(C)C(C(C)O)C(=O)NC(C(C)c2ccccc2)C(=O)N1` (centres unmarked) [Compound 1805], the results for the IC50 in assay [1] and in assay [3] were 10 to 100 nM and 100 to 500 nM, respectively. For the same compound, in assay [2], the “Antagonist Activity” value was “C (C = 10-100 nM)”.

Regarding `CCC1CCc2ccc(Cl)cc2OCCNC(C(C)C)C(=O)N(C)C(C(C)O)C(=O)NC(Cc2c[nH]c3ccccc23)C(=O)N1` (centres unmarked) [Compound 1806], the values for the IC50 in assay [1] and in assay [3] were 10 to 100 nM and 100 to 500 nM, respectively. Also, in assay [2], the “Antagonist Activity” value was “C (C = 10-100 nM)”.

For `CCC1CCc2ccccc2OCCNC(C(C)C)C(=O)N(C)C(C(C)O)C(=O)NC(Cc2c[nH]c3ccc(F)cc23)C(=O)N1` (centres unmarked) [Compound 1808], the IC50 in assay [1] was 1 to 10 nM; in assay [3], 10 to 50 nM. In assay [2], the “Antagonist Activity” value is on record as “B (B = 1-10 nM)”.

Regarding `CC(C)C1NCCOc2cccc(F)c2C=CCNC(=O)C(C(C)c2ccccc2)NC(=O)C(C(C)O)N(C)C1=O` (centres unmarked) [Compound 1811], the results for the IC50 in assay [1] and in assay [3] were 10 to 100 nM and 100 to 500 nM, respectively.

As to `CCC1CCc2ccc(F)cc2OCCNC(C(C)C)C(=O)N(C)C(C(C)O)C(=O)NC(Cc2cn(S(=O)(=O)c3ccc(C)cc3)c3ccccc23)C(=O)N1` (centres unmarked) [Compound 1812], the IC50 was 10 to 100 nM in assay [1] and 50 to 100 nM in assay [3]. Besides, in assay [2], the “Antagonist Activity” value was “C (C = 10-100 nM)”.

With `CCC1CCc2ccc(Cl)cc2OCCNC(C(C)C)C(=O)N(C)C(C(C)O)C(=O)NC(Cc2ccccc2)C(=O)N1` (centres unmarked) [Compound 1813], the IC50 in assay [1] and in assay [3] was 100 to 500 nM in each case.

Consider `CCC1CCc2ccc(Cl)cc2OCCNC(C(C)C)C(=O)N(C)C(C(C)O)C(=O)NC(Cc2cccc(F)c2)C(=O)N1` (centres unmarked) [Compound 1814], for which the IC50 in assay [1] and in assay [3] was 100 to 500 nM in each case.

In the case of `CCC1CCc2ccc(F)cc2OCCNC(C(C)C)C(=O)N(C)C(C(C)O)C(=O)NC(Cc2ccco2)C(=O)N1` (centres unmarked) [Compound 1824], the IC50 was 10 to 100 nM in assay [1] and 100 to 500 nM in assay [3].

As to `CCC(C)C1NCCOc2ccccc2C=CCNC(=O)C(Cc2c[nH]c3ccc(F)cc23)NC(=O)C(C(C)O)N(C)C1=O` (centres unmarked) [Compound 1827], the IC50 in assay [1] was in the range of 10 to 100 nM; in assay [3] it was 100 to 500 nM.

With `CCC1CCc2ccc(F)cc2OCCNC(CC)C(=O)N(C)C(C(C)O)C(=O)NC(Cc2c[nH]c3ccccc23)C(=O)N1` (centres unmarked) [Compound 1853], the IC50 in assay [1] was in the range of 10 to 100 nM; in assay [3] it was 100 to 500 nM.

For `CCC1CCc2ccc(F)cc2OCCNC(CC)C(=O)N(C)C(C(C)O)C(=O)NC(Cc2ccccc2)C(=O)N1` (centres unmarked) [Compound 1854], the IC50 in assay [1] and in assay [3] was 100 to 500 nM throughout.

For the compound `CCC1CCc2ccc(F)cc2OCCNC(CC)C(=O)N(C)C(C(C)O)C(=O)NC(Cc2ccc(F)cc2)C(=O)N1` (centres unmarked) [Compound 1855], the IC50 in assay [1] fell in the range of 10 to 100 nM; in assay [3], 100 to 500 nM.

Take `CC(O)[C@H]1C(=O)N[C@H](Cc2ccc(Cl)cc2)C(=O)N[C@H](C)CCc2ccc(F)cc2OCCN[C@@H](C2(C)CC2)C(=O)N1C` (some centres unmarked) [Compound 1872]: the IC50 was in the range of 1 to 10 nM in assay [1] and 10 to 50 nM in assay [3].

For `CC[C@@H]1CCc2ccc(F)cc2OCCN[C@@H](C2(C)CC2)C(=O)N(C)[C@@H](C(C)O)C(=O)N[C@H](Cc2ccc(Cl)cc2)C(=O)N1` (some centres unmarked) [Compound 1875], the IC50 in assay [1] was 1 to 10 nM; in assay [3], 50 to 100 nM.

As for `CC(O)[C@H]1C(=O)N[C@H](Cc2ccc(F)cc2)C(=O)NCC#Cc2ccccc2OCCN[C@@H](C2(C)CC2)C(=O)N1C` (some centres unmarked) [Compound 1879], the IC50 was 10 to 100 nM in assay [1] and 10 to 50 nM in assay [3].

Consider `CC(O)[C@H]1C(=O)N[C@H](Cc2ccc(F)cc2)C(=O)NCC#Cc2c(F)cccc2OCCN[C@@H](C2(C)CC2)C(=O)N1C` (some centres unmarked) [Compound 1884], for which the IC50 in assay [1] lay within 1 to 10 nM; in assay [3], 10 to 50 nM.
